Source: ChEMBL document CHEMBL5214916, “Enzyme inhibition as a potential therapeutic strategy to treat COVID-19 infection” (Bioorg Med Chem, 2021)

Tests used:
[1] = molecular target: Transmembrane protease serine 2 (Homo sapiens, UniProt O15393); assay: Inhibition of TMPRSS2 (unknown origin) expressed in Escherichia coli BL21 (DE3) using H-D cyclohexylalanine-Pro-Arg-AM as substrate by Dixon method
[2] = molecular target: T1, Angiotensin-converting enzyme 2 (Homo sapiens, UniProt Q9BYF1); assay: Inhibition of recombinant human ACE2 using 7-Mca-YVADAPK (Dnp) as substrate by fluorescence plate reader assay
Target sequence in this assay (Q9BYF1 whole entry): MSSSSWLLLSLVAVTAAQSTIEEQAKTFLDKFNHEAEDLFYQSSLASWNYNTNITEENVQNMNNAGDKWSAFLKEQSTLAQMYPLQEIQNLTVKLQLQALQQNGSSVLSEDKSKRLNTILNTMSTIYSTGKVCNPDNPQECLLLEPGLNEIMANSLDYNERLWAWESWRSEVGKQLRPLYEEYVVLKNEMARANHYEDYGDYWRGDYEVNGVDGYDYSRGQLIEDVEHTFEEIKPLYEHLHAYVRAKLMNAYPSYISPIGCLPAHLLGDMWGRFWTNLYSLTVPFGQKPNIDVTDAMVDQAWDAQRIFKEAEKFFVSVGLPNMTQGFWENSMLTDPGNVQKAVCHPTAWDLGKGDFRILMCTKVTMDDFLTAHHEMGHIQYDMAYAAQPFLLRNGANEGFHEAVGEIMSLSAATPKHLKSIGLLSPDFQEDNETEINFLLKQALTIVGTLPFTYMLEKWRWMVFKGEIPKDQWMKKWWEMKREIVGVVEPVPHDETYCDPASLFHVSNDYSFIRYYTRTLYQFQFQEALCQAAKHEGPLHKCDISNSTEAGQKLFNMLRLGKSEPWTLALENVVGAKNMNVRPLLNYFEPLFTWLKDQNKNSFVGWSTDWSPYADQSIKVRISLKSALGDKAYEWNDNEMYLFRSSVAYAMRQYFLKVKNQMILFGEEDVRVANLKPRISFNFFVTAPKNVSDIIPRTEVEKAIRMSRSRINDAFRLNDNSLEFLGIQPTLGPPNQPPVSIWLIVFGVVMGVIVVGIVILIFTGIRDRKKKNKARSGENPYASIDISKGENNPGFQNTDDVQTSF

[3] = molecular target: T1, Angiotensin-converting enzyme 2; assay: Inhibition of recombinant human ACE2 assessed as maximum inhibition using 7- Mca-YVADAPK (Dnp) as substrate by fluorescence plate reader assay relative to control
Target sequence in this assay (Q9BYF1 18-805 limits assumed): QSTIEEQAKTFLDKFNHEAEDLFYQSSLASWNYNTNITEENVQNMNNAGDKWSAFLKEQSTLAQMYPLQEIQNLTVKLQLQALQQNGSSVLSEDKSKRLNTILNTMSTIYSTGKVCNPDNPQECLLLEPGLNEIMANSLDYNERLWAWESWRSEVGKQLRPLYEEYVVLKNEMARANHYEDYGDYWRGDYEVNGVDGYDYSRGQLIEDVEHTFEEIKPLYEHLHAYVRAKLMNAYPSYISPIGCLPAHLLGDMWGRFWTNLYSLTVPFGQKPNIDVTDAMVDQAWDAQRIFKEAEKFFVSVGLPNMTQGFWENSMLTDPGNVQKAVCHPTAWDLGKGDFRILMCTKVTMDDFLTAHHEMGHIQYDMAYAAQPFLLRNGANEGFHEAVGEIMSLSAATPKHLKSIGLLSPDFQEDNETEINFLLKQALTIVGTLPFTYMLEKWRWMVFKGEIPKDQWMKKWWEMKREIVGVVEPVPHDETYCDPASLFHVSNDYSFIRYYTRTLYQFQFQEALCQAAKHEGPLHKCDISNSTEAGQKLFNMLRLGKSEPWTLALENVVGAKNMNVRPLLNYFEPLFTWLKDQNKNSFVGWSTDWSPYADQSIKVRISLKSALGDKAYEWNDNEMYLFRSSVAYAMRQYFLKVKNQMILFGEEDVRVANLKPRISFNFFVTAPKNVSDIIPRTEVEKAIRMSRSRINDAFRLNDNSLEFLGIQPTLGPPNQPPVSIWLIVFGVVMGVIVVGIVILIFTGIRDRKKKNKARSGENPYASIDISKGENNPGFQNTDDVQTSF

[4] = molecular target: T1, Angiotensin-converting enzyme 2; assay: Inhibition of ACE2 in human MNCs assessed as maximum inhibition using 7- Mca-YVADAPK (Dnp) as substrate by fluorescence plate reader assay relative to control; format: cell-based; settings: Mononuclear cell line
Target sequence in this assay (Q9BYF1 18-805 limits assumed): as above

[5] = molecular target: T2, Angiotensin-converting enzyme (Homo sapiens, UniProt P12821); assay: Inhibition of recombinant human ACE assessed as maximum inhibition using Mca-RPGFSAFK (Dnp)-OH as substrate by fluorescence plate reader assay relative to control
T2 sequence (P12821 whole entry): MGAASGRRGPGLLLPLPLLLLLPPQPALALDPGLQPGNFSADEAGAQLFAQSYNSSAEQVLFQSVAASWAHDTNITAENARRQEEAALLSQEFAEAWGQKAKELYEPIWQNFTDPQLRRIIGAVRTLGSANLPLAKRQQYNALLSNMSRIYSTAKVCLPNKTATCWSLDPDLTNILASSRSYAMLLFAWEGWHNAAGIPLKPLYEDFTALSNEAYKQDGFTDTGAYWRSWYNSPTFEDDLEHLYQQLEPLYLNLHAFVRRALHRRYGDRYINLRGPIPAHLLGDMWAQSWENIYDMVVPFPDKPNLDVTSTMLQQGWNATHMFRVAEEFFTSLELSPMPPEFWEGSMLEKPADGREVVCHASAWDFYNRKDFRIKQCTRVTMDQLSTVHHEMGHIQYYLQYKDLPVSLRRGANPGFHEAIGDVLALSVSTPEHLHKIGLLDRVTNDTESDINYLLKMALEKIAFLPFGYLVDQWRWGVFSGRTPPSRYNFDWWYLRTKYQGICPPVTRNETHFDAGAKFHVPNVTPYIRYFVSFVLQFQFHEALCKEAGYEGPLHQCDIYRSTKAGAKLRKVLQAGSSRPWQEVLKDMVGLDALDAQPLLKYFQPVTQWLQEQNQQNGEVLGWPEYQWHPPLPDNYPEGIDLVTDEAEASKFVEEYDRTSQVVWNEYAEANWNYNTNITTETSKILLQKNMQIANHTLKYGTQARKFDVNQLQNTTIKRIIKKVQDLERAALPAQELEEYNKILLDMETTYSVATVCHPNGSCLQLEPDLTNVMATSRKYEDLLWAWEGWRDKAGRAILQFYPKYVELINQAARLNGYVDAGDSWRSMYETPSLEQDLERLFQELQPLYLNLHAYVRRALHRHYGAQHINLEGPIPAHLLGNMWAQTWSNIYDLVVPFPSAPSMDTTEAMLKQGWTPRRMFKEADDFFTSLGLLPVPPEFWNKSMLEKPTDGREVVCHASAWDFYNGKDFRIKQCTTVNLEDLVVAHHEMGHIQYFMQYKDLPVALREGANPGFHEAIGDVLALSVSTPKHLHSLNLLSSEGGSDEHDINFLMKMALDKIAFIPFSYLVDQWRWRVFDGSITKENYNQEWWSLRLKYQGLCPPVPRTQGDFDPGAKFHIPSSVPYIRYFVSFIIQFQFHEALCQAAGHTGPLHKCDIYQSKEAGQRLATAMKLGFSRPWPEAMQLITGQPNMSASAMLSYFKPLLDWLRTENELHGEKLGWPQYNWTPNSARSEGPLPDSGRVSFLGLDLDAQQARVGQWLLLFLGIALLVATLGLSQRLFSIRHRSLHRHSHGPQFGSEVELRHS

[6] = molecular target: T2, Angiotensin-converting enzyme; assay: Inhibition of ACE in human MNCs assessed as maximum inhibition using substrate Mca-RPGFSAFK (Dnp)-OH as substrate by fluorescence plate reader assay relative to control; format: cell-based; settings: Mononuclear cell line
[7] = molecular target: T2, Angiotensin-converting enzyme; assay: Inhibition of recombinant human ACE using Mca-RPGFSAFK (Dnp)- OH as substrate by fluorescence plate reader assay
Influenza A virus [8] = assay: Antiviral activity against human pandemic influenza virus A/Aichi/2/68 (H3N2) infected in human Calu-3 cells assessed as fold decrease in viral titre at 50 uM incubated for 24 hrs by plaque assay; format: functional
Influenza A virus [9] = assay: Antiviral activity against human pandemic influenza virus A/Aichi/2/68 (H3N2) infected in human Calu-3 cells assessed as fold decrease in viral titre at 10 uM incubated for 24 hrs by plaque assay; format: functional
Influenza A virus [10] = assay: Antiviral activity against human pandemic influenza virus A/Hamburg/5/09 (H1N1) infected in human Calu-3 cells assessed as fold decrease in viral titre at 50 uM incubated for 24 hrs by plaque assay; format: functional
Influenza A virus [11] = assay: Antiviral activity against human pandemic influenza virus A/Hamburg/5/09 (H1N1) infected in human Calu-3 cells assessed as fold decrease in viral titre at 10 uM incubated for 24 hrs by plaque assay; format: functional
Calu-3 = assay: Cytotoxicity against human Calu-3 cells assessed as decrease in viability at 50 uM incubated for 48 hrs by MTT assay; format: toxicity, cell-based; settings: calu-3, 48 h

Sequence of Transmembrane protease serine 2 (O15393 1-255 limits assumed): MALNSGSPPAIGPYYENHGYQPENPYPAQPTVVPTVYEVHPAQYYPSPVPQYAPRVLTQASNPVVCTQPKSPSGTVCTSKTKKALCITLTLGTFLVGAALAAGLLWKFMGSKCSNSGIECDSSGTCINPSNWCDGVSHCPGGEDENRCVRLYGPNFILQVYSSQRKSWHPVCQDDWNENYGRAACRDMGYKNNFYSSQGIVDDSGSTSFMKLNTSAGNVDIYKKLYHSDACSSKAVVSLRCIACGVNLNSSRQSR
Sequence of Transmembrane protease serine 2 (O15393 256-492 limits assumed): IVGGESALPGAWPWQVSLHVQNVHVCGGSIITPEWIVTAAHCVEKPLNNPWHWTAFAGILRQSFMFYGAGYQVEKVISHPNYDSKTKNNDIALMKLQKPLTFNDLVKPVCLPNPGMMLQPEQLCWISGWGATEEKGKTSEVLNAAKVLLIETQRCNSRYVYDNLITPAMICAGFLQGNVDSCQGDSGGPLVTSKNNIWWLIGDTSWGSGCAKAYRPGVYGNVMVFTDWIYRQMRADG

| SMILES | Ki [1] [nM] | Imax [3] [%] | Imax [4] [%] | Imax [5] [%] | Imax [6] [%] | other results |
| --- | --- | --- | --- | --- | --- | --- |
| CNC(=O)NCCC1CCN(C(=O)[C@H](Cc2cccc(C(=N)N)c2)NS(=O)(=O)c2cccc(-c3ccc(OC)cc3OC)c2)CC1 | 3 |  |  |  |  |  |
| CC(C)CC(N[C@@H](Cc1cncn1Cc1cc(Cl)cc(Cl)c1)C(=O)O)C(=O)O (mixture of isomers) |  | 94 | 34 | 48 | 22 | IC50 [2]: 3.16 nM; IC50 [7]: 39800 nM |
| N=C(N)c1cccc(C[C@H](NS(=O)(=O)c2cccc(-c3ccc(Cl)cc3Cl)c2)C(=O)N2CCC(CCN)CC2)c1 | 0.9 |  |  |  |  | fold change (FC) (Influenza A virus [8]): 100; fold change (FC) (Influenza A virus [9]): 100; fold change (FC) (Influenza A virus [10]): 100; fold change (FC) (Influenza A virus [11]): 10 |
| CC(C)C[C@@H](N[C@@H](Cc1cncn1Cc1cc(Cl)cc(Cl)c1)C(=O)O)C(=O)O |  | 93 | 35 | 49 | 20 | IC50 [2]: 1.26 nM; IC50 [7]: 39800 nM |
| N=C(N)c1cccc(C[C@H](NS(=O)(=O)c2cccc(-c3ccc(Cl)cc3Cl)c2)C(=O)N2CCC(NC(=O)NC3CCCCC3)CC2)c1 | 3 |  |  |  |  |  |
| COc1ccc(-c2cccc(S(=O)(=O)N[C@@H](Cc3cccc(C(=N)N)c3)C(=O)N3CCC(NC(=O)NC4CCCCC4)CC3)c2)c(OC)c1 | 3 |  |  |  |  | Activity (Calu-3): 20% |
| COc1ccc(-c2cccc(S(=O)(=O)N[C@@H](Cc3cccc(C(=N)N)c3)C(=O)N3CCC(CCN)CC3)c2)c(OC)c1 | 1 |  |  |  |  |  |
| CNC(=O)NCCC1CCN(C(=O)[C@H](Cc2cccc(C(=N)N)c2)NS(=O)(=O)c2cccc(-c3ccc(Cl)cc3Cl)c2)CC1 | 3 |  |  |  |  |  |
| CC(C)C[C@H](N[C@@H](Cc1cncn1Cc1cc(Cl)cc(Cl)c1)C(=O)O)C(=O)O [ORE-1001] |  | 80 | 63 | 46 | 34 | pIC50 [2]: 8.01; pIC50 [7]: 5 |
| CNC(=O)CCCC1CCN(C(=O)[C@H](Cc2cccc(C(=N)N)c2)NS(=O)(=O)c2cccc(-c3ccc(Cl)cc3Cl)c2)CC1 |  |  |  |  |  | Activity (Calu-3): 20% |
